Measured values: patent US3970648A, “2-[2-(5-Nitro-2-furyl)vinyl]-4-(anilino)quinazolines” (Diamond Shamrock Corporation, priority 1974, dated 1976)

Assay: Growth promotion in chicks, titration dosage, Example IX (Table III)
Assay type: in vivo, broiler cross chicks
Source text: The concentrations used in this test were 6.25, 12.5, 25, 50, 100, 200 and 400 g of the Product of Example I per ton of the Basal Ration described in Example VII above. The same number and size chick treatment groups were used in this test as in Example VIII above.

**Q.** With `O=[N+]([O-])c1ccc(C=Cc2nc(Nc3ccc(O)cc3)c3ccccc3n2)o1` [Example I, 2-[2-(5-nitro-2-furyl)vinyl]-4-(p-hydroxyanilino)quinazoline] as the compound, how does the “Average 4 Week Performance: Feed Efficiency” value (6.25 g/T) read?
**A.** Its value is 1.657.

**Q.** And the “Average 4 Week Performance: Gain” value (6.25 g/T)?
**A.** Its value is 714.6 g.

**Q.** What about the “Improved Response Over Basal Ration: Feed Efficiency” value (6.25 g/T) of the same compound?
**A.** Its value is “+3.4%”.

**Q.** What about the “Improved Response Over Basal Ration: Gain” value (6.25 g/T) of the same compound?
**A.** The value was -3.4%.

**Q.** And the “activity (in words)” value (6.25 g/T)?
**A.** The value was “little or no activity”.

**Q.** What about the “Average 4 Week Performance: Feed Efficiency” value (12.5 g/T) of the same compound?
**A.** Its value is 1.652.

**Q.** And the “Average 4 Week Performance: Gain” value (12.5 g/T)?
**A.** Its value is 765.3 g.

**Q.** What about the “Improved Response Over Basal Ration: Feed Efficiency” value (12.5 g/T) of the same compound?
**A.** Its value is “+3.7%”.

**Q.** And the “Improved Response Over Basal Ration: Gain” value (12.5 g/T)?
**A.** The value was “+3.4%”.

**Q.** What about the “Average 4 Week Performance: Feed Efficiency” value (25 g/T) of the same compound?
**A.** Its value is 1.603.

**Q.** And the “Average 4 Week Performance: Gain” value (25 g/T)?
**A.** The value was 805.7 g.

**Q.** And the “Improved Response Over Basal Ration: Feed Efficiency” value (25 g/T)?
**A.** Its value is “+6.5%”.

**Q.** And the “Improved Response Over Basal Ration: Gain” value (25 g/T)?
**A.** The value was “+8.9%”.

**Q.** What about the “Average 4 Week Performance: Feed Efficiency” value (50 g/T) of the same compound?
**A.** Its value is 1.609.

**Q.** What about the “Average 4 Week Performance: Gain” value (50 g/T) of the same compound?
**A.** Its value is 785.3 g.

**Q.** And the “Improved Response Over Basal Ration: Feed Efficiency” value (50 g/T)?
**A.** The value was “+6.2%”.

**Q.** What about the “Improved Response Over Basal Ration: Gain” value (50 g/T) of the same compound?
**A.** The value was “+6.1%”.

**Q.** And the “Average 4 Week Performance: Feed Efficiency” value (100 g/T)?
**A.** The value was 1.663.

**Q.** What about the “Average 4 Week Performance: Gain” value (100 g/T) of the same compound?
**A.** The value was 742.7 g.

**Q.** What about the “Improved Response Over Basal Ration: Feed Efficiency” value (100 g/T) of the same compound?
**A.** Its value is “+3.0%”.

**Q.** And the “Improved Response Over Basal Ration: Gain” value (100 g/T)?
**A.** Its value is “+0.4%”.

**Q.** What about the “weight gain improvement (in words)” value (100 g/T) of the same compound?
**A.** Its value is “unexplained absence of weight gain improvement”.

**Q.** What about the “Average 4 Week Performance: Feed Efficiency” value (200 g/T) of the same compound?
**A.** The value was 1.609.

**Q.** And the “Average 4 Week Performance: Gain” value (200 g/T)?
**A.** The value was 782.5 g.

**Q.** What about the “Improved Response Over Basal Ration: Feed Efficiency” value (200 g/T) of the same compound?
**A.** The value was “+6.2%”.

**Q.** And the “Improved Response Over Basal Ration: Gain” value (200 g/T)?
**A.** Its value is “+5.8%”.

**Q.** What about the “Average 4 Week Performance: Feed Efficiency” value (400 g/T) of the same compound?
**A.** Its value is 1.678.

**Q.** What about the “Average 4 Week Performance: Gain” value (400 g/T) of the same compound?
**A.** Its value is 751.5 g.

**Q.** What about the “Improved Response Over Basal Ration: Feed Efficiency” value (400 g/T) of the same compound?
**A.** Its value is “+2.2%”.

**Q.** And the “Improved Response Over Basal Ration: Gain” value (400 g/T)?
**A.** The value was “+1.6%”.

**Q.** And the “response (in words)” value (400 g/T)?
**A.** The value was “sharp downturn”.

**Q.** And the “level at which noticeable growth promotion began” value (in vivo)?
**A.** The value was 12.5 g/T.

**Q.** And the “optimum concentration (economics and efficacy)” value (in vivo)?
**A.** The value was 25 g/T.
